{
  "source": "patent US11179382B2",
  "about": "“Methods of reversing normal aging process and extending lifespan” (MyMD Pharmaceuticals (Florida), Inc., priority 2015, dated 2021)",
  "key": {"[1]": {"tested_on": "herpes labialis (herpes simplex)", "assay": "Treatment of herpes labialis (cold sores) in an individual", "assay_type": "in vivo, human", "details": "100 mg dose upon first feeling the onset of a cold sore", "experimental": "This example illustrates administering isomyosmine to treat herpes labialis (cold sores), a type of herpes simplex occurring on the lip. An individual who experiences periodic outbreaks of herpes labialis was administered a 100 mg dose of isomyosmine upon first feeling the onset of a cold sore."}, "[2]": {"tested_on": "individual being treated for type II diabetes", "assay": "Individual with type II diabetes treated with isomyosmine", "assay_type": "in vivo, human", "details": "one individual, 100 mg per day, following three months of treatment; taken off existing diabetes medication", "experimental": "(§1) This example illustrates administering isomyosmine to treat high blood pressure. Twelve individuals experiencing high blood pressure were each administered isomyosmine at dose of 100 mg per day. […] The blood pressure of one of the individuals was measured to be 145/86 mmHg without isomyosmine in the bloodstream and was measured to be 109/59 mmHg while being treated with isomyosmine. Another of the individuals was being treated for type II diabetes at the beginning of the treatment."}, "surgical incisions": {"tested_on": "surgical incisions", "assay": "Topical administration for wound healing", "assay_type": "in vivo, human", "details": "e.g., avoid scarring around surgical incisions", "from_the_text": "In another aspect, a method of treating a wound comprises administering to an individual in need thereof a pharmaceutical composition containing a therapeutically effective amount of isomyosmine or a pharmaceutically acceptable salt thereof."}, "[3]": {"tested_on": "stage-four cancer patient diagnosed with autoimmune amyloidosis", "assay": "Treatment of a stage-four cancer patient with autoimmune amyloidosis; immunoglobulin light chain Kappa/Lambda detection in blood", "assay_type": "in vivo, human", "details": "for Lambda Light Chains / Free Light Chains Ratio / Kappa Light Chains: 250 mg daily; for Lambda Light Chains: initial 6.5, standard range 5.7-26.3; for Free Light Chains Ratio: initial 75.38, standard range 0.26-1.65; for Kappa Light Chains: initial 490.0, standard range 3.3-19.4", "experimental": "This example illustrates treating a stage-four cancer patient who had been diagnosed with autoimmune amyloidosis. At the time treatment began, the individual was bedridden under hospice care and told they had only a few days to live. The individual was administered a daily dose of 250 mg isomyosmine.\nThe patient's blood was tested using conventional immunoglobulin light chain Kappa/Lambda detection. The immunoglobulin kappa and lambda (Ig κ/λ) in situ hybridization (ISH) system is designed for the detection of human kappa and lambda immunoglobulin light chain messenger RNA (mRNA) in tissue sections and blood and bone marrow smears. The system uses biotin-labeled oligonucleotide probes. The probe-mRNA duplex is indirectly detected using an enzyme-conjugated antibody targeting the biotin conjugate. For color development, a chromogenic substrate is added. Enzymatic reaction of the chromogenic substrate leads to the formation of a color precipitate that is visualized by light microscopy."}, "[4]": {"tested_on": "individuals experiencing high blood pressure", "assay": "Treatment of individuals experiencing high blood pressure", "assay_type": "in vivo, human", "details": "100 mg per day", "experimental": "as §1"}, "MAO-A": {"biological_target": "T1, MAO-A (Homo sapiens, UniProt P21397)", "T1 construct": "purchased", "T1 sequence (P21397 1-527)": "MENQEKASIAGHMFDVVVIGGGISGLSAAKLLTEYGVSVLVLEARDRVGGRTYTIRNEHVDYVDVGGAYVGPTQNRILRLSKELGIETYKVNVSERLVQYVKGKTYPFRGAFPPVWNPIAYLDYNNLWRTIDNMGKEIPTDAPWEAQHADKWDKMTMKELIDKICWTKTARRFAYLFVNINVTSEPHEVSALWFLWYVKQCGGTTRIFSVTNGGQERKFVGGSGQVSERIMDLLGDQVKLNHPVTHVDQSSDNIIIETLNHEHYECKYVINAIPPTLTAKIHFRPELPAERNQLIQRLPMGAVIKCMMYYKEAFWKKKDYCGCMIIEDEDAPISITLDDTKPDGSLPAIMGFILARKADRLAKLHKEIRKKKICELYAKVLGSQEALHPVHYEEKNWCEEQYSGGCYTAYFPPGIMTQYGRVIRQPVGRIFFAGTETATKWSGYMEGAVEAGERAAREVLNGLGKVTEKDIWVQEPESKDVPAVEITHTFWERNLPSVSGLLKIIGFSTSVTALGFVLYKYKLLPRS", "assay": "MAO-Glo luminescent assay, MAO-A inhibition", "assay_type": "biochemical", "details": "compared among isomyosmine, myosmine, anatabine, anabasine, nornicotine; clorgyline positive control", "from_the_text": "(§2) This example describes experiments for determining monoamine oxidase (MAO) inhibition for isomyosmine and other alkaloids. MAOs are enzymes located on the outer membrane of mitochondria and are involved in the catabolism of monoamine neurotransmitters. There are two well-characterized isoenzymes: MAO-A, which predominantly catabolizes serotonin and norepinephrine, and MAO-B, which preferentially catabolizes benzylamine and phenylethylamine. Dopamine and tyramine are metabolized by both isoforms.\n(§3) To detect the activity of MAO, a luminescent method (MAO-Glo Assay kit, from Promega, Cat #V1401) was used. In this method, a MAO substrate (a derivative of beetle luciferin provided in the kit) is mixed with the compound to be tested (in this case, myosmine and control compounds). Then, the MAO enzymes (either A or B, purchased separately) are added to the mixture and incubated with the reaction for 1 hour at room temperature. The MAO enzymes, if not inhibited by the test compound, will convert the substrate into methyl ester luciferin. Finally, a luciferin detection reagent (provided by the kit) is added (20 minutes at room temperature) to stop the MAO reaction and convert methyl ester luciferin into D-luciferin. […] The luminescent signal is measured and recorded using a luminometer. […]"}, "[5]": {"tested_on": "individuals (peripheral capillary oxygen saturation)", "assay": "Blood oxygen saturation (SpO2) by pulse oximetry in individuals", "assay_type": "in vivo, human", "details": "one hour after a single dose (50-100 mg), seven individuals", "from_the_text": "This example illustrates the effect of isomyosmine on normal blood oxygen saturation levels (SpO2). SpO2 refers to peripheral capillary oxygen saturation, an estimate of the amount of oxygen in the blood. More specifically, it is the percentage of oxygenated hemoglobin (hemoglobin containing oxygen) compared to the total amount of hemoglobin in the blood (oxygenated and non-oxygenated hemoglobin). SpO2 can be measured by pulse oximetry, an indirect, non-invasive method. It works by emitting and then absorbing a light wave passing through blood vessels (or capillaries) in the fingertip. A variation of the light wave passing through the finger will give the value of the SpO2 measurement because the degree of oxygen saturation causes variations in the blood's color."}, "MAO-B": {"biological_target": "T2, MAO-B (Homo sapiens, UniProt P27338)", "T2 construct": "purchased", "T2 sequence (P27338 1-520)": "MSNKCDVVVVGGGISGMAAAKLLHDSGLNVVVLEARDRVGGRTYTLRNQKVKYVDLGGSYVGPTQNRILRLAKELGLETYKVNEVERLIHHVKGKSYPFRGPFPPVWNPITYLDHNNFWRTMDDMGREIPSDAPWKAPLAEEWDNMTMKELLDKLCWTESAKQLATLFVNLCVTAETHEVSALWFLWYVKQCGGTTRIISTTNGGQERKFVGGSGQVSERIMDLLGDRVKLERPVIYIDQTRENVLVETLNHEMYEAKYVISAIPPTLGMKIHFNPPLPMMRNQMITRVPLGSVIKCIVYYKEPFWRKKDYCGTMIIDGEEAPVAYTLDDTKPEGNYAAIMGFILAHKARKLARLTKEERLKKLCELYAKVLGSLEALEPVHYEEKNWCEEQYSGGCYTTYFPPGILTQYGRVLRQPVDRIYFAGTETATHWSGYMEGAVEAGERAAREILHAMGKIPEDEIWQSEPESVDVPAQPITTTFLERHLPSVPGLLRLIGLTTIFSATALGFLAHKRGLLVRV", "assay": "MAO-Glo luminescent assay, MAO-B inhibition", "assay_type": "biochemical", "details": "compared among isomyosmine, myosmine, anatabine, anabasine, nornicotine", "from_the_text": "as §2, §3"}},
  "note": "“And” between values parts separate entries of the source, which are not always exact repeats. Equal entries are not always repeated. “Also recorded” adds a separate entry of the source.",
  "data": [
    {"compound": "C1=NC(c2cccnc2)CC1", "note": "(stereo not shown) [isomyosmine, 3-(3,4-dihydro-2H-pyrrol-2-yl)-pyridine]", "values": [
      {"measurement": "outbreak of cold sore", "setting": "[1]", "value": "effective to prevent the outbreak of the cold sore"},
      {"measurement": "symptoms of diabetes", "setting": "[2]", "value": "no symptoms of diabetes"},
      {"measurement": "wound healing (result in words)", "setting": "surgical incisions", "value": "dramatically improve healing"},
      {"measurement": "Lambda Light Chains", "setting": "[3]; 3 weeks", "value": 10.9, "unit": "mg/L"},
      {"measurement": "Free Light Chains Ratio", "setting": "[3]; 3 weeks", "value": 55.23},
      {"measurement": "Kappa Light Chains", "setting": "[3]; 3 weeks", "value": 602.0, "unit": "mg/L"},
      {"measurement": "Lambda Light Chains", "setting": "[3]; 9 weeks", "value": 9.2, "unit": "mg/L"},
      {"measurement": "Free Light Chains Ratio", "setting": "[3]; 9 weeks", "value": 42.83},
      {"measurement": "Kappa Light Chains", "setting": "[3]; 9 weeks", "value": 394.0, "unit": "mg/L"},
      {"measurement": "Lambda Light Chains", "setting": "[3]; 12 weeks", "value": 7.1, "unit": "mg/L"},
      {"measurement": "Free Light Chains Ratio", "setting": "[3]; 12 weeks", "value": 29.58},
      {"measurement": "Kappa Light Chains", "setting": "[3]; 12 weeks", "value": 210.0, "unit": "mg/L"},
      {"measurement": "Lambda Light Chains", "setting": "[3]; 14 weeks", "value": 3.0, "unit": "mg/L"},
      {"measurement": "Free Light Chains Ratio", "setting": "[3]; 14 weeks", "value": 64.33},
      {"measurement": "Kappa Light Chains", "setting": "[3]; 14 weeks", "value": 193.0, "unit": "mg/L"},
      {"measurement": "Lambda Light Chains", "setting": "[3]; 17 weeks", "value": 3.6, "unit": "mg/L"},
      {"measurement": "Free Light Chains Ratio", "setting": "[3]; 17 weeks", "value": 28.89},
      {"measurement": "Kappa Light Chains", "setting": "[3]; 17 weeks", "value": 104.0, "unit": "mg/L"},
      {"measurement": "individual's symptoms", "setting": "[3]; daily dose of 250 mg, within two weeks of treatment, able to get out of bed and walk around", "value": "remarkably improved"},
      {"measurement": "blood pressure while being treated", "setting": "[4]; one individual, 145/86 mmHg without isomyosmine in the bloodstream", "value": "109/59"},
      {"measurement": "change in blood pressure during treatment", "setting": "[4]; twelve individuals", "value": "reduction in blood pressure"},
      {"measurement": "inhibiting the enzymatic activity of MAO-A (result in words, FIG. 3)", "setting": "MAO-A", "value": "most potent of the five; also recorded: potent inhibitor"},
      {"measurement": "blood oxygenation (result in words)", "setting": "[5]", "value": "significant increase in blood oxygenation"},
      {"measurement": "Dosed SpO2", "setting": "[5]; base SpO2 94.0-97.0", "value": "98.0 (5×) and 99.0 (2×)"},
      {"measurement": "inhibiting the activity of MAO-B (result in words, FIG. 4)", "setting": "MAO-B", "value": "most potent among the five alkaloids tested; also recorded: potent inhibitor"}
    ]}
  ]
}
